Data from patent publication US20260008818A1, “CYCLIC PEPTIDE OR SALT THEREOF, AND USES THEREOF” (FUJIFILM Corporation, priority 2023, published 2026).
Ends that are not written are not given here.

Experiments:
[1] = Stability of cyclic peptide after alkali treatment, LC; type: physicochemical; conditions: alkali treatment: 0.5 mol/L sodium hydroxide aqueous solution, room temperature, 3 hours
Procedure: In addition, the stability of the cyclic peptide (SEQ ID NO: 382) containing a cysteine residue in the cyclized portion and the cyclic peptide (SEQ ID NO: 374) containing a homocysteine residue in the cyclized portion was compared under the following alkali treatment, which is a more severe condition.
The alkali treatment was performed by the following method. 25 μL of a 0.2 mg/mL cyclic peptide aqueous solution was prepared, 58.8 μL of a 0.5 mol/L sodium hydroxide aqueous solution was added to the aqueous solution, and the mixture was incubated at room temperature for 3 hours to obtain an aqueous solution of the cyclic peptide alkali-treated. The total area of all the peaks in LC/MS of the cyclic peptide before the alkali treatment was set to 100%, and the proportion of the total area of all the peaks in LC/MS of the aqueous solution of the cyclic peptide alkali-treated was determined to calculate the residual rate of the cyclic peptide.
The LC conditions used for the evaluation of molecular stability are the same as those in the measurement of the above-described cyclic peptide treated with a reducing agent.

[2] = system: BaF3 cells stably expressing FGFR (human); assay: Cell proliferation-promoting effect on BaF3 cells stably expressing human FGFR; type: cell-based; conditions: BaF3 with human FGFR; viable cells at the addition concentration (0.001 to 10 nmol/L) with largest number; 2 nights
Procedure: (§1) The FGFR phosphorylation ability of the cyclic peptide complex was evaluated using the BaF3 cell proliferation-promoting effect in which FGFR was stably expressed.
(§2) BaF3 cells stably expressing FGFR were established by introducing a vector (human: Gene Copocia, EX-Y2820-M67, bovine: sequence of Accession No. A4IFL5 was introduced into pCDNA3.1/Hygro(+) Mammalian Expression Vector (Thermo, V87020), porcine: sequence of Accession No. A0A8DIE4H1 was introduced into pCDNA3.1/Hygro(+) Mammalian Expression Vector (Thermo, V87020), and avian: sequence of Accession No. P21804 was introduced into pCDNA3.1/Hygro(+) Mammalian Expression Vector (Thermo, V87020)) into which FGFR gene had been incorporated, into BaF3 cells using NucleoFector (Lonza) and performing drug selection of cells into which the FGFR gene had been introduced using hygromycin.
(§3) The evaluation of the proliferation-promoting effect of BaF3 cells in which FGFR is stably expressed was performed by the following method. First, RPMI-1640 with L-Glutamine and Phenol Red (FUJIFILM Wako Pure Chemical Corporation, 189-02025) and Fetal Bovine Serum (Thermo, 10270-106) were mixed at a volume ratio of 9:1, and then heparin (STEM CELL, 07980) was added thereto such that the final concentration thereof was 8 μg/mL, thereby preparing a culture medium for evaluation (hereinafter, described as RPMI (10% FBS) medium). Next, the BaF3 cells in which FGFR had been stably expressed were washed twice with RPMI (10% FBS) culture medium, suspended in RPMI (10% FBS) culture medium in which the cyclic peptide complex had been dissolved to a final concentration of 0.001 to 10 nmol/L, and seeded in a 384-well plate. In this case, a condition in which the cyclic peptide complex was not added as a negative control was prepared. After culturing at 37° C. (5% CO2) for 2 nights, Hoechst 33342, Trihydrochloride, Trihydrate—10 mg/mL Solution in Water (Thermo, H3570), -Cellstain (registered trademark)-Calcein-AM solution (1 mg/mL DMSO solution) (DOJINDO, C396), and -Cellstain (registered trademark)-PI solution (DOJINDO, P378) were each added to RPMI (10% FBS) culture medium in a volume amount of 1/1,000 at the final concentration, and live/dead staining of the cells were performed by allowing to stand at room temperature for 1 hour, and imaging was performed using a confocal microscope (Yokogawa Electric Corporation, CQ1). The number of viable cells was calculated from the imaging data, and the cell proliferation-promoting effect was evaluated according to the following evaluation criteria. The number of viable cells in the negative control was about 20 cells/well. The evaluation result preferably satisfies the evaluation criteria A, B, or C. […]

[3] = system: BaF3 cells stably expressing FGFR (bovine); assay: Cell proliferation-promoting effect on BaF3 cells stably expressing bovine FGFR; type: cell-based; conditions: BaF3 with bovine FGFR; viable cells at the addition concentration (0.001 to 10 nmol/L) with largest number; 2 nights
Procedure: as §1, §2, §3

[4] = system: BaF3 cells stably expressing FGFR (porcine); assay: Cell proliferation-promoting effect on BaF3 cells stably expressing porcine FGFR; type: cell-based; conditions: BaF3 with porcine FGFR; viable cells at the addition concentration (0.001 to 10 nmol/L) with largest number; 2 nights
Procedure: as §1, §2, §3

[5] = system: BaF3 cells stably expressing FGFR (avian); assay: Cell proliferation-promoting effect on BaF3 cells stably expressing avian FGFR; type: cell-based; conditions: BaF3 with avian FGFR; viable cells at the addition concentration (0.001 to 10 nmol/L) with largest number; 2 nights
Procedure: as §1, §2, §3

Substance	residual rate of the cyclic peptide [1] [%]	Evaluation result of cell proliferative properties Human [2]	Evaluation result of cell proliferative properties Bovine [3]	Evaluation result of cell proliferative properties Porcine [4]	Evaluation result of cell proliferative properties Avian [5]
H-(C)-SYERLQFHGHEAPFRV-(K(acetyl))-VKKK [SEQ ID NO: 382]	26				
H-(Hcy)-SYERLQFHGHEAPFRV-(K(acetyl))-VKKK [SEQ ID NO: 374]	32				
392 (HCSYERLQFHGHEAPFRVKVHCSYERLQFHGHEAPFRVKV; also: cyclic, closure not given here) [compound 392]		A (The number of viable cells is 400 cells/well or more.)	A (The number of viable cells is 400 cells/well or more.)	B (The number of viable cells is 200 cells/well or more and less than 400 cells/well.)	B (The number of viable cells is 200 cells/well or more and less than 400 cells/well.)
395 (CSYERLQFHGHEAPFRVKVCSYERLQFHGHEAPFRVKV; also: cyclic, closure not given here) [compound 395]		B (The number of viable cells is 200 cells/well or more and less than 400 cells/well.)	A (The number of viable cells is 400 cells/well or more.)	B (The number of viable cells is 200 cells/well or more and less than 400 cells/well.)	B (The number of viable cells is 200 cells/well or more and less than 400 cells/well.)
396 (CSYERLQFHGHEAPFRVKVCSYERLQFHGHEAPFRVKV; also: cyclic peptide) [compound 396]		A (The number of viable cells is 400 cells/well or more.)	A (The number of viable cells is 400 cells/well or more.)	B (The number of viable cells is 200 cells/well or more and less than 400 cells/well.)	A (The number of viable cells is 400 cells/well or more.)
